The results in this text go back to patent US11597951B2 (Lygos, Inc., priority 2018, dated 2023).

Numbering of substitutions follows the chain as printed. Names and notes keep the numbering of the source.

Data set [1] is described as follows: Malonic acid solubility in water. Type of data set: physicochemical.
Data set [2] concerns MdcY-PMdcL based biosensor. The experiment in a line: MdcY malonate transcription factor biosensor using exogenously added malonate. The data set is classed as cell-based, E. coli. The text has this: S14 employs the malonate responsive transcription factor, MdcY (SEQ ID NO:3), and the MdcY-responsive promoter, PMdcL (SEQ ID NO:6) derived from Acinetobacter calcoaceticus. This biosensor of this disclosure was constructed using an E. coli vector backbone with ampicillin resistance marker and ColE1 origin of replication; the tetA tetracycline resistance gene was placed under control of the PMdcL promoter.
Nucleic acids encoding for MdcY and TetA gene products, PMdcL promoter, and the E. coli vector backbone were synthetically produced; the biosensor vectors were than constructed by PCR amplification of the nucleic acids and subsequent cloning into the E. coli vector backbone. The plasmids were transformed into chemically competent E. coli DH10b and the resulting clones plated on LB agar plates containing 50 μg/ml carbenicillin (Cb^50). Individual colonies were grown overnight in 3 ml LB medium supplemented with antibiotic and the sequences of the purified plasmid were verified.
E. coli strain K12 was co-transformed with plasmids S14 and individual colonies isolated from LB agar plates (Cb^50). Colonies were grown in 25 ml LB broth (Cb^50) until reaching an optical density at 600 nm (OD600) of approximately 0.50, at which point in time cell stocks were prepared and stored at −80° C.; cell stocks were 0.5 ml cell culture and 0.5 ml of a 50% v/v glycerol solution.
An aliquot of biosensor cell stock was thawed and used to inoculate 50 ml of LB medium (Cb^50) in a 250 ml, baffled Erlenmeyer flask. Cultures were incubated for 2 hours at 37° C.; subsequently, 0.6 ml biosensor culture was added to 48-well plates prepared with 2.3 ml LB medium)(Cb^50) supplemented with tetracycline and malonate acid at the desired concentration (n=4). Plates were than grown at 30° C. on an orbital titer plate shaker. Following 12 hours incubation, 200 μl samples were taken for OD600 measurement.

For a further data set, the system named is E. coli strain K12. The experiment in a line: In vivo production of malonate in E. coli using S. cerevisiae EHD3 malonyl-CoA hydrolases. The data set is classed as cell-based. The following applies: for Malonate Concentration: E. coli K12, M9 minimal medium, 30° C., 48 hours, mean±std dev, n=3; for malonate production relative to wild-type EHD3: E. coli K12, 48 hours. As for the experimental part:
This example describes the host cells and culture conditions resulting in the in vivo production of malonate using a heterologous EHD3 malonyl-CoA hydrolase in an E. coli host cell. E. coli strain K12 was transformed with vectors containing wild-type EHD3, EHD3 (E124A), […], EHD3 (E124S), EHD3 (E124A, E308V) or an empty vector negative control. Transformants were streaked on LB agar plates (Cm^50, 2% glucose). Following overnight growth at 37° C., individual colonies were inoculated into 3 ml LB (Cm^50, 2% glucose) in a 48-well plate. Cultures were incubated on a plate shaker at 37° C. for 6 hours, at which point each culture was inoculated 1% v/v into M9 minimal medium supplemented with Cm^50 and a mixed carbon source (0.5% glycerol, 0.05% glucose, 0.2% lactose) in a 48-well plate. Cultures were incubated on a plate shaker at 30° C., and a 500 μL sample of the fermentation broth was removed for analysis after 48 hours incubation.
Samples were centrifuged (×6000 g, 1 min) and the supernatant analyzed for malonate quantification. Chemical standards were prepared in […] of water. The separation of malonate was conducted on a Shimadzu Prominence XR UPLC connected to a refractive index detector and UV detector monitoring 210 nm. Product separation was performed on a Bio-Rad Fermentation Monitoring column. The UPLC was programmed to run isocratically using 5 mM H2504 as the eluant with a flow rate of 600 μL per minute. 10 μL were injected per sample, and the sample plate temperature was held at 4° C. Malonate standards began eluting at […]. […] Malonate concentrations (mg/1) were calculated by comparison to a standard curve prepared from authentic malonate.

Another data set concerns S. cerevisiae. The experiment in a line: Production of malonate in yeast expressing engineered FabD malonyl CoA:ACP transacylase. Type of data set: cell-based. An excerpt:
In this example, FabD from E. coli, a malonyl CoA:ACP transacylase (EC 2.3.1.39) having one or more of the following amino acid changes at the indicated positions: C92, H201, N201, D117, E117, N117, Y117, G117, H117, Q11, D11, Ell, N11, Y11, G11, H11, A93, V93, I93, F93, S93, G93 was employed as a malonyl-CoA hydrolase. The nucleic acid encoding E. coli FabD was PCR amplified from E. coli strain K12 using primer F1 (5′-[…]-3′) (SEQ ID NO: 43) and F2 (5′-[…]-3′) (SEQ ID NO: 44). The amplified gene was then mutated using standard methods and inserted into a shuttle expression plasmid under the control of the TEF1 promoter and upstream of the CYC1 terminator. This vector contains an ampicillin resistance cassette, a PMB1 origin of replication, a CEN/ARS origin of replication, and a URA3 selection marker. The individual mutational combinations assayed are listed with the results below.
Individual colonies were inoculated into 1 ml of yeast fermentation media comprising 5 g/L ammonium sulfate, 1 g/L monopotassium phosphate, 0.5 g/L magnesium sulfate, 0.1 g/L sodium chloride, 0.1 g/L calcium chloride, 2 mg/L inositol, 0.5 mg/L boric acid, 0.4 mg/L calcium pentothenate, 0.4 mg/L niacin, 0.4 mg/L pyridoxine hydrochloride, 0.4 mg/L thiamine HCl, 0.4 mg/L zinc sulfate, 0.4 mg/L manganese sulfate, 0.2 mg/L p-aminobenzoic acid, 0.2 mg/L riboflavin, 0.2 mg/L sodium molybdate, 0.2 mg/L ferric chloride, 0.1 mg/L potassium iodide, 40 μg/L copper sulfate, 2 μg/L folic acid, 2 μg/L biotin, 10 mg/L adenine, 50 mg/L L-arginine HCl, 80 mg/L L-aspartic acid, 20 mg/L L-histidine HCl, 50 mg/L L-isoleucine, 100 mg/L L-leucine, 50 mg/L L-lysine HCl, 20 mg/L methionine, 50 mg/L L-phenylalanine, 100 mg/L L-threonine, 50 mg/L L-tryptophan, 50 mg/L L-tyrosine, and 140 mg/L L-valine (the base media) containing 2% glucose as a carbon source. The cultures were incubated on a shaker at 30° C. for 24 h, and 20 μl of these cultures were used to inoculate production cultures of 2 ml of the same media. The production cultures were covered with a breathable membrane, incubated with shaking at 30° C. and sampled for HPLC analysis of product accumulation after 96 h and 168 h of growth.

[3] abbreviates: plasmid S14, tetracycline, 12 hours, 30° C.

On to `O=C(O)CC(=O)O` [malonic acid, propanedioic acid], for which the “Malonic acid solubility in water” value is reported as 53.92 % (w/w) in data set [1] (5 ° C.); 55.75 % (w/w) in data set [1] (10 ° C.); 57.63 % (w/w) in data set [1] (15 ° C.); 59.68 % (w/w) in data set [1] (20 ° C.); 61.69 % (w/w) in data set [1] (25 ° C.); 63.5 % (w/w) in data set [1] (30 ° C.). In addition, the “Malonic acid solubility in water” value was 65.28 % (w/w) in data set [1] (35 ° C.); 67.43 % (w/w) in data set [1] (40 ° C.); 68.85 % (w/w) in data set [1] (45 ° C.); 70.33 % (w/w) in data set [1] (50 ° C.); 72.38 % (w/w) in data set [1] (55 ° C.); 74.29 % (w/w) in data set [1] (60 ° C.). In addition, the “Malonic acid solubility in water” value in data set [1] (65° C.) is 75.96 % (w/w). In data set [1] (65° C.), this molecule returned a solubility limit of 76 % wt/wt. Also, the biosensor response result in data set [2] (cultures harboring S14) was “dose-dependent response”. In data set [2] (setting [3]), the “dynamic range (maximum difference in OD600 between fully induced samples and samples absent malonate)” value came out at 1.2 OD600 units. In addition, in data set [2] (setting [3]), the “exogenously added malonate concentration over which an increase in OD600 was observed” value fell in the range of 0.5 to 1 mM.
Regarding “Wild-type EHD3: wild type S. cerevisiae EHD3 acyl-CoA hydrolase, SEQ ID NO:1”, the “Malonate Concentration” value in the data set on E. coli strain K12 is 6.0 ± 0.2 mg/L.

B1: EHD3 (E124V): S. cerevisiae EHD3 with point mutation E124V, malonyl-CoA hydrolase (protein, UniProt P28817 1-500, looked up, variant E124V)
Small ribosomal subunit …: MLRNTLKCAQLSSKYGFKTTTRTFMTTQPQLNVTDAPPVLFTVQDTARVITLNRPKKLNALNAEMSESMFKTLNEYAKSDTTNLVILKSSNRPRSFCAGGDVATVAIFNFNKEFAKSIKFFTDVYSLNFQIATYLKPIVTFMDGITMGGGVGLSIHTPFRIATENTKWAMPEMDIGFFPDVGSTFALPRIVTLANSNSQMALYLCLTGEVVTGADAYMLGLASHYVSSENLDALQKRLGEISPPFNNDPQSAYFFGMVNESIDEFVSPLPKDYVFKYSNEKLNVIEACFNLSKNGTIEDIMNNLRQYEGSAEGKAFAQEIKTKLLTKSPSSLQIALRLVQENSRDHIESAIKRDLYTAANMCMNQDSLVEFSEATKHKLIDKQRVPYPWTKKEQLFVSQLTSITSPKPSLPMSLLRNTSNVTWTQYPYHSKYQLPTEQEIAAYIEKRTNDDTGAKVTEREVLNHFANVIPSRRGKLGIQSLCKIVCERKCEEVNDGLRWK
Regarding B1, in the data set with E. coli strain K12, the “malonate production relative to wild-type EHD3” value is reported as “decreased production of malonate” and the “Malonate Concentration” value came out at 0.28 ± 0.03 mg/L.

B2: EHD3 (E124A): S. cerevisiae EHD3 with point mutation E124A, malonyl-CoA hydrolase (protein, UniProt P28817 1-500, looked up, variant E124A)
Small ribosomal subunit …: B1 Small ribosomal subunit … with V124A
For the molecule B2, in the data set on E. coli strain K12, the “malonate production relative to wild-type EHD3” value is “only a minor increase” and the “Malonate Concentration” value was found to be 7.6 ± 0.7 mg/L.

B3: EHD3 (E124A/E308V): S. cerevisiae EHD3 with mutations E124A and E308V, malonyl-CoA hydrolase (protein, UniProt P28817 1-500, looked up, variant E124A E308V)
Small ribosomal subunit …: B1 Small ribosomal subunit … with V124A, E308V
On to B3, for which, in the data set with E. coli strain K12, the “Malonate Concentration” value amounted to 8.35 ± 2.5 mg/L.

B4: FabD S92C/L93V/R117H: engineered E. coli FabD malonyl CoA:ACP transacylase with S92C/L93V/R117H (protein, UniProt P0AAI9 2-309, looked up, variant S92C L93V R117H)
Malonyl CoA-acyl carrier …: TQFAFVFPGQGSQTVGMLADMAASYPIVEETFAEASAALGYDLWALTQQGPAEELNKTWQTQPALLTASVALYRVWQQQGGKAPAMMAGHCVGEYSALVCAGVIDFADAVRLVEMHGKFMQEAVPEGTGAMAAIIGLDDASIAKACEEAAEGQVVSPVNFNSPGQVVIAGHKEAVERAGAACKAAGAKRALPLPVSVPSHCALMKPAADKLAVELAKITFNAPTVPVVNNVDVKCETNGDAIRDALVRQLYNPVQWTKSVEYMAAQGVEHLYEVGPGKVLTGLTKRIVDTLTASALNEPSAMAAALEL
As to B4, the Malonate accumulation in the data set on S. cerevisiae (96 h of fermentation) came out at 1.01 mM; in the data set on S. cerevisiae (168 h of fermentation), 2.49 mM.

B5: FabD L93I/R117Y: engineered E. coli FabD malonyl CoA:ACP transacylase with L93I/R117Y (protein, UniProt P0AAI9 2-309, looked up, variant L93I R117Y)
Malonyl CoA-acyl carrier …: B4 Malonyl CoA-acyl carrier … with C91S, V92I, H116Y
Turning to B5, the figures for the Malonate accumulation in the data set on S. cerevisiae (96 h of fermentation) and in the data set on S. cerevisiae (168 h of fermentation) were 1.64 mM and 3.47 mM, respectively.

B6: FabD L931/R117Y: engineered E. coli FabD malonyl CoA:ACP transacylase variant, printed L931/R117Y (protein, UniProt P0AAI9 2-309, looked up, variant L93I R117Y)
Malonyl CoA-acyl carrier …: B4 Malonyl CoA-acyl carrier … with C91S, V92I, H116Y
Consider B6, for which the results for the Malonate accumulation with S. cerevisiae (96 h of fermentation) and in the data set with S. cerevisiae (168 h of fermentation) were 1.47 mM and 2.48 mM, respectively.

B7: FabD L93S/R117G: engineered E. coli FabD malonyl CoA:ACP transacylase with L93S/R117G (protein, UniProt P0AAI9 2-309, looked up, variant L93S R117G)
Malonyl CoA-acyl carrier …: B4 Malonyl CoA-acyl carrier … with C91S, V92S, H116G
Regarding B7, the Malonate accumulation in the data set with S. cerevisiae (96 h of fermentation) was determined as 1.11 mM; in the data set on S. cerevisiae (168 h of fermentation) it was 2.89 mM.
